We go through 23 compounds from patent publication US20220177471A1, “N-1 BRANCHED ALKYL SUBSTITUTED IMIDAZO[4,5-C]QUINOLINE COMPOUNDS, COMPOSITIONS, AND METHODS” (3M INNOVATIVE PROPERTIES COMPANY, priority 2019, published 2022).

The experiment has as its target T1, human TLR8 (Homo sapiens, UniProt Q9NR97).
T1 construct: host or cells: HEK293 (HEK-BLUE-hTLR8)
T1 sequence (Q9NR97 27-1041): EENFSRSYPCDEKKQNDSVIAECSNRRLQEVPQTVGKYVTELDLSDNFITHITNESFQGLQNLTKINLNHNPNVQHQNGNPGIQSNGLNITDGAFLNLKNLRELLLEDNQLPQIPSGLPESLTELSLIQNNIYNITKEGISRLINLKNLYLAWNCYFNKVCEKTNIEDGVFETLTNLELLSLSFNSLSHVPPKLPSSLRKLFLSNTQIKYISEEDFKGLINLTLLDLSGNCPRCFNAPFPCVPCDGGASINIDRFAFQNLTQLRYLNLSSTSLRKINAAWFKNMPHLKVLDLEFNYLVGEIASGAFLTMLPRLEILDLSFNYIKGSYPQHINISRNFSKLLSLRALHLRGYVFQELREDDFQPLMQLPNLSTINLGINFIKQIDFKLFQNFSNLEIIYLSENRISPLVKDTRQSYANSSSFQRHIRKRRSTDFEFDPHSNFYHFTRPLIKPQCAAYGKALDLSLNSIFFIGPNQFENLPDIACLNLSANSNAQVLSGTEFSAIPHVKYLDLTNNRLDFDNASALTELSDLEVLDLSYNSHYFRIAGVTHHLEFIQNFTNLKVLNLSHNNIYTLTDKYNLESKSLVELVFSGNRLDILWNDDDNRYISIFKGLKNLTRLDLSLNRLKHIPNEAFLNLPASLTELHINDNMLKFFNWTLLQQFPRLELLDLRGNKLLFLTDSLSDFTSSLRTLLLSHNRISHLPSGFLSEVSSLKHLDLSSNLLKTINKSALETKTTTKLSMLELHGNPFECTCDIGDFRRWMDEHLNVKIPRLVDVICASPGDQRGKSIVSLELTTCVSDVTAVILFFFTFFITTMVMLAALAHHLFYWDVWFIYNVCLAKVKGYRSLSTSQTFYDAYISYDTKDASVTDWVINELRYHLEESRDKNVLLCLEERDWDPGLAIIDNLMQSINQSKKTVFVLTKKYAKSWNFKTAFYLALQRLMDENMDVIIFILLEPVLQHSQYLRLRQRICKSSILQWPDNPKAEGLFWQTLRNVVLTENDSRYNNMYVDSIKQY
Put plainly: TLR activation, HEK-BLUE-hTLR8 SEAP reporter cells. Format: cell-based. The note with it: 16-20 hours, lowest concentration giving SEAP response at least 2x vehicle control, tested 0.01-30 micromolar. How it is done:
HEK-BLUE-hTLR7 or hTLR8 reporter cells were obtained from InvivoGen, San Diego, Calif. According to the manufacturer's description, these reporter cells were prepared by co-transfection of HEK293 cells with an inducible secreted embryonic alkaline phosphatase (SEAP) reporter gene and either the human TLR7 or TLR8 gene. The SEAP reporter gene was placed under the control of an IFN-β minimal promoter fused to five NF-κB and AP-1-binding sites. In the presence of a TLR ligand, activation of NF-κB and AP-1 occurs, resulting in a corresponding increase in SEAP levels.
In the assay, the HEK cells were grown and maintained using standard cell culture techniques in a growth medium that contained Dulbecco's Modified Eagle Medium (ThermoFisher Scientific Incorporated, Waltham, Mass.) supplemented with 1% penicillin/streptomycin and 10% heat-inactivated Gibco fetal bovine serum (ThermoFisher Scientific). Each compound was solubilized in DMSO to create a 3 mM stock solution. The stock solution was then further diluted with the growth medium to prepare serial dilutions. Each test compound was tested at a concentration of 30, 10, 3.3, 1.1, 0.37, 0.12, 0.04, and 0.01 micromolar using a 96-well format with 5×10^4 cells and 200 microliters of growth medium per well.
For each compound, hTLR7, hTLR8, and their respective null control HEK cells were screened. DMSO serially diluted into the growth medium served as the vehicle control. Cell culture supernatants containing the SEAP reporter were collected after an incubation period of 16-20 hours in a cell culture incubator (37° C. and 5% CO2), and either analyzed immediately or stored at −80° C. SEAP levels were measured using the colorimetric enzyme assay (QUANTI-BLUE (InvivoGen) according to manufacturer's instructions.
Specifically, the minimum effective concentration of each compound (micromolar) was determined as the lowest concentration of the compound that produced a SEAP expression response at least 2× greater than that observed with the vehicle control wells.
Consider `CCCC[C@@H](n1cnc2c(N)nc3ccccc3c21)C(C)(C)C` [Example 8, 1-[(1R)-1-tert-butylpentyl]imidazo[4,5-c]quinolin-4-amine], for which the “MEC to Produce TLR Activation: TLR 8” value was over 30 µM.

Regarding `CCC[C@@H](n1cnc2c(N)nc3ccccc3c21)C(C)(C)O` [Example 13, (3R)-3-(4-aminoimidazo[4,5-c]quinolin-1-yl)-2-methyl-hexan-2-ol], the “MEC to Produce TLR Activation: TLR 8” value came to 10 µM.

As to `C[C@@H](C1CCCCC1)n1cnc2c(N)nc3ccccc3c21` [Example 6, 1-[(1S)-1-cyclohexylethyl]imidazo[4,5-c]quinolin-4-amine], the “MEC to Produce TLR Activation: TLR 8” value was over 30 µM.

For the compound `CCCC[C@H](C(C)C)n1cnc2c(N)nc3ccccc3c21` [Example 7, 1-[(1R)-1-isopropylpentyl]imidazo[4,5-c]quinolin-4-amine], the “MEC to Produce TLR Activation: TLR 8” value is over 30 µM.

Regarding `C[C@H](n1cnc2c(N)nc3ccccc3c21)C(C)(C)O` [Example 10, (3S)-3-(4-aminoimidazo[4,5-c]quinolin-1-yl)-2-methyl-butan-2-ol], the “MEC to Produce TLR Activation: TLR 8” value is over 30 µM.

For the compound `CC[C@H](n1cnc2c(N)nc3ccccc3c21)C(C)(C)O` [Example 12, (3S)-3-(4-aminoimidazo[4,5-c]quinolin-1-yl)-2-methyl-pentan-2-ol], the “MEC to Produce TLR Activation: TLR 8” value is over 30 µM.

Take `CC(C)C[C@H](n1cnc2c(N)nc3ccccc3c21)C(C)(C)O` [Example 18, (3S)-3-(4-aminoimidazo[4,5-c]quinolin-1-yl)-2,5-dimethyl-hexan-2-ol]: the “MEC to Produce TLR Activation: TLR 8” value was over 30 µM.

With `C[C@H](n1cnc2c(N)nc3ccccc3c21)C(C)(C)C` [Example 4, 1-[(1S)-1,2,2-trimethylpropyl]imidazo[4,5-c]quinolin-4-amine], the “MEC to Produce TLR Activation: TLR 8” value is over 30 µM.

In the case of `CC(C)[C@H](C)n1cnc2c(N)nc3ccccc3c21` [Example 2, 1-[(1S)-1,2-dimethylpropyl]imidazo[4,5-c]quinolin-4-amine], the “MEC to Produce TLR Activation: TLR 8” value is over 30 µM.

As for `C[C@@H](n1cnc2c(N)nc3ccccc3c21)C(C)(C)C` [Example 3, 1-[(1R)-1,2,2-trimethylpropyl]imidazo[4,5-c]quinolin-4-amine], the “MEC to Produce TLR Activation: TLR 8” value is over 30 µM.

For the compound `CC(C)C[C@@H](n1cnc2c(N)nc3ccccc3c21)C(C)(C)O` [Example 17, (3R)-3-(4-aminoimidazo[4,5-c]quinolin-1-yl)-2,5-dimethyl-hexan-2-ol], the “MEC to Produce TLR Activation: TLR 8” value was over 30 µM.

Consider `CCCC[C@H](n1cnc2c(N)nc3ccccc3c21)C(C)(C)O` [Example 16, (3S)-3-(4-aminoimidazo[4,5-c]quinolin-1-yl)-2-methyl-heptan-2-ol], for which the “MEC to Produce TLR Activation: TLR 8” value is over 30 µM.

With `C[C@H](C1CCCCC1)n1cnc2c(N)nc3ccccc3c21` [Example 5, 1-[(1R)-1-cyclohexylethyl]imidazo[4,5-c]quinolin-4-amine], the “MEC to Produce TLR Activation: TLR 8” value was over 30 µM.

In the case of `C[C@H](n1cnc2c(N)nc3ccccc3c21)C(C)(C)F` [Example 21, 1-[(1S)-2-fluoro-1,2-dimethyl-propyl]imidazo[4,5-c]quinolin-4-amine], the “MEC to Produce TLR Activation: TLR 8” value was over 30 µM.

As for `CCC(O)(CC)[C@@H](C)n1cnc2c(N)nc3ccccc3c21` [Example 19, (2R)-2-(4-aminoimidazo[4,5-c]quinolin-1-yl)-3-ethyl-pentan-3-ol], the “MEC to Produce TLR Activation: TLR 8” value is over 30 µM.

For the compound `CC(C)[C@@H](C)n1cnc2c(N)nc3ccccc3c21` [Example 1, 1-[(1R)-1,2-dimethylpropyl]imidazo[4,5-c]quinolin-4-amine], the “MEC to Produce TLR Activation: TLR 8” value is over 30 µM.

Take `C[C@@H](n1cnc2c(N)nc3ccccc3c21)C(C)(C)O` [Example 9, (3R)-3-(4-aminoimidazo[4,5-c]quinolin-1-yl)-2-methyl-butan-2-ol]: the “MEC to Produce TLR Activation: TLR 8” value is over 30 µM.

With `CC(C)(O)Cn1cnc2c(N)nc3ccccc3c21` [Comparative Example 2, 1-(4-aminoimidazo[4,5-c]quinolin-1-yl)-2-methyl-propan-2-ol, reference compound], the “MEC to Produce TLR Activation: TLR 8” value was over 30 µM.

As for `CCCC[C@@H](n1cnc2c(N)nc3ccccc3c21)C(C)(C)O` [Example 15, (3R)-3-(4-aminoimidazo[4,5-c]quinolin-1-yl)-2-methyl-heptan-2-ol], the “MEC to Produce TLR Activation: TLR 8” value worked out at 10 µM.

Take `C[C@@H](n1cnc2c(N)nc3ccccc3c21)C(C)(C)F` [Example 20, 1-[(1R)-2-fluoro-1,2-dimethyl-propyl]imidazo[4,5-c]quinolin-4-amine]: the “MEC to Produce TLR Activation: TLR 8” value is over 30 µM.

For `CC(C)Cn1cnc2c(N)nc3ccccc3c21` [Comparative Example 1, 1-isobutylimidazo[4,5-c]quinolin-4-amine, reference compound], the “MEC to Produce TLR Activation: TLR 8” value is over 30 µM.

`CC[C@@H](n1cnc2c(N)nc3ccccc3c21)C(C)(C)O` [Example 11, (3R)-3-(4-aminoimidazo[4,5-c]quinolin-1-yl)-2-methyl-pentan-2-ol]: the “MEC to Produce TLR Activation: TLR 8” value was over 30 µM.

As for `CCC[C@H](n1cnc2c(N)nc3ccccc3c21)C(C)(C)O` [Example 14, (3S)-3-(4-aminoimidazo[4,5-c]quinolin-1-yl)-2-methyl-hexan-2-ol], the “MEC to Produce TLR Activation: TLR 8” value is over 30 µM.
